Entries after “also recorded” stand apart in the source; their conditions may differ.
Legend:
Assay type in all cases: in vivo, mice
[1] = molecular target: T1, NK1R (Mus musculus, UniProt P30548); assay: Epithelial wound closure by corneal fluorescein staining, stem cell deficiency model (Example 2)
T1 construct: NK1R is expressed by both corneal epithelial and stem cell-like cells; from tissue; host or cells: cornea / ocular surface of live C57BL6/N mice (topical dosing in vivo)
From the text: (§1) Eight-week-old male mice C57BL6/N (Charles River, Calco, Italy) (WT mice, n=18) and Tac1-deficient B6.Cg-Tac1tm1Bbm/J (Jackson Laboratories, Bar Harbor, Me., USA) (TAC1-KO mice, n=18) were used in all experiments. TAC1-KO mice are homozygous null for the Tac1 gene. […] The corneal thickness and transparency as well as the corneal nerve length are similar to C57BL/6 mice [Barbariga M, Rabiolo A, Fonteyne P, Bignami F, Rama P, Ferrari G. The effect of aging on nerve morphology and substance P expression in mouse and human corneas. Investig Ophthalmol Vis Sci 2018; 59:5329-35. https://doi.org/10.1167/iovs.18-24707.]. […]
Every day after disepithelization, in vivo corneal photographs were taken using a digital camera (EOS 30D; Canon, Tokyo, Japan) attached to a slit-lamp microscope (Photoslitmap 40 SL-P; Zeiss, Oberkochen, Germany) to assess corneal condition. Corneal opacity was evaluated using a grading score (from 0-4; 0=completely clear, 4=completely opaque) previously described [Yoeruek E, Deuter C, Gieselmann S, Saygili O, Spitzer M S, Tatar O, et al. Long-term visual acuity and its predictors after cataract surgery in patients with uveitis. […] The percentage of green fluorescent area on the total corneal area was evaluated by analyzing images by Image J software (National Institutes of Health, Bethesda, Md., USA).

[2] = tested on: conjunctival cells; assay: Conjunctival and corneal epithelial cell identification (CK8, CK19, CK12 immunofluorescence), stem cell deficiency model; details: Fosaprepitant 1 mg/mL (FOSA 1)
From the text: Eight-week-old male mice C57BL6/N (Charles River, Calco, Italy) (WT mice, n=18) and Tac1-deficient B6.Cg-Tac1tm1Bbm/J (Jackson Laboratories, Bar Harbor, Me., USA) (TAC1-KO mice, n=18) were used in all experiments. TAC1-KO mice are homozygous null for the Tac1 gene. […] The corneal thickness and transparency as well as the corneal nerve length are similar to C57BL/6 mice [Barbariga M, Rabiolo A, Fonteyne P, Bignami F, Rama P, Ferrari G. The effect of aging on nerve morphology and substance P expression in mouse and human corneas. Investig Ophthalmol Vis Sci 2018; 59:5329-35. https://doi.org/10.1167/iovs.18-24707.]. Each animal was anesthetized with an intraperitoneal injection of tribromoethanol (250 mg/kg) and a topical anesthetic was applied to their ocular surface prior to the surgical procedure. Total disepithelization was performed based on the model previously described [Amirjamshidi H, Milani B Y, Sagha H M, Movahedan A, Shafiq M A, Lavker R M, et al. Limbal fibroblast conditioned media: A non-invasive treatment for limbal stem cell deficiency. Mol Vis 2011; 17:658], using a blunt spatula to scrap the entire corneal epithelium, including the limbus. Then, fluorescein staining was used to confirm complete removal of the corneal epithelium under the blue light of a slit-lamp microscope. After wounding, eyes were treated with ophthalmic moxifloxacin 1 time/day for 1 week to […]. Fourteen days after disepithelization mice were euthanized using carbon dioxide inhalation and subsequent cervical dislocation. Corneas were collected for immunostaining and western blot analysis. […]
The presence of conjunctival epithelial cells was evaluated by immunofluorescence. […] A negative control using only the secondary antibody was used to establish a fluorescence threshold. Then, the fluorescent intensity was quantified in terms of the percentage of positive area (% area) in the epithelium.

[3] = tested on: goblet cells; assay: Goblet cell identification by PAS staining in the cornea, stem cell deficiency model; details: Fosaprepitant 1 mg/mL (FOSA 1); p<0.05
From the text: as §1, with “https://doi.org/10.1167/iovs.18-24707.]. Each animal was anesthetized with an intraperitoneal injection of tribromoethanol (250 mg/kg) and a topical anesthetic was applied to their ocular surface prior to the surgical procedure.” for “https://doi.org/10.1167/iovs.18-24707.].”
To identify the presence of goblet cells, periodic acid Schiff (PAS) staining was performed following the same experimental protocol previously described [Ferrari G, Bignami F, Giacomini C, Franchini S, Rama P. Safety and efficacy of topical infliximab in a mouse model of ocular surface scarring. […] The number of PAS+ cells was quantified using Image J software (National Institutes of Health, Bethesda, Md., USA), and the results were expressed as PAS+ cells per section.

T1 sequence (P30548 whole entry): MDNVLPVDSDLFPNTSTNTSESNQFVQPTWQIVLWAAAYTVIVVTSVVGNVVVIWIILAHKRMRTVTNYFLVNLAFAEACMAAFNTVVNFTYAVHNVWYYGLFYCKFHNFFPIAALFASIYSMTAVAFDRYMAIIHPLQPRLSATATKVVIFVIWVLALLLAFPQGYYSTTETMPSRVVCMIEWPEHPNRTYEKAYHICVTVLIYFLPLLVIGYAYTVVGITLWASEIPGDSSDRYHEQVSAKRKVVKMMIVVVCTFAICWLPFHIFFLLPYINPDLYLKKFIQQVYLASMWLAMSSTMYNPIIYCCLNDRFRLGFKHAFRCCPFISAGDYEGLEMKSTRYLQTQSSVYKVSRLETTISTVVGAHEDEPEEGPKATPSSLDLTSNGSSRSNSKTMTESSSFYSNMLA

## C[C@@H](O[C@H]1OCCN(Cc2nc(=O)n(P(=O)(O)O)[nH]2)[C@H]1c1ccc(F)cc1)c1cc(C(F)(F)F)cc(C(F)(F)F)c1 [Fosaprepitant, [3-{[(2R,3S)-2-[(1R)-1-[3,5-bis(trifluoromethyl)phenyl]ethoxy]-3-(4-fluorophenyl)morpholin-4-yl]methyl}-5-oxo-2H-1,2,4-triazol-1-yl]phosphonic acid]
[1]; Fosaprepitant 0.1 mg/mL (FOSA 0.1) topically 4 times/day for 16 days
  wound closure compared to WT: did not show any improvement; also recorded: no improvement
[1]; Fosaprepitant 1 mg/mL (FOSA 1) topically 4 times/day for 16 days, from day five, p<0.05
  wound closure rate compared to WT: significant improvement; also recorded: significant faster epithelial wound closure
[2]; p<0.001
  CK12 expression in the corneal epithelium compared to WT: increase
[2]; p<0.01
  CK8 conjunctival cells infiltrating the cornea compared to WT: Reduced number; also recorded: reduction
[2]; p<0.05
  CK19 conjunctival cells compared to WT: significant decrease; also recorded: reduction
[3]
  PAS+ cells (goblet cells) in the cornea compared to WT: Reduced number; also recorded: decrease

Source: US20230134843A1, “TREATMENT OF STEM CELL DEFICIENCY” (OSPEDALE SAN RAFFAELE S.R.L., priority 2020, published 2023)
